Experiment: displacement of tritiated calcium acetylhomotaurinate from a preparation of rat brain section
Format: binding
Conditions: in vitro, displacement of titiated calcium acetylhomotaurinate
Description: In in vitro tests, it has furthermore been shown that these compounds have the ability to displace titiated calcium acetylhomotaurinate from a preparation of rat brain section.

| SMILES | IC50 |
| --- | --- |
| CC(C)(C)C(=O)NCCCS(=O)(=O)O [Example 1, calcium 3-(2-2-(dimethyl)propanoylamino)propanesulphonate] | 46.9 µM |
| CC(C)C(=O)NCCCS(=O)(=O)O [Example 3, magnesium 3-(2-(methyl)propanoylamino)propanesulphonate] | 28.9 µM |
| CC(C)CC(=O)NCCCS(=O)(=O)O [Example 14, magnesium 3-(3-(methyl)butanoylamino)propanesulphonate] | 42 µM |
| CC(=O)NC(C)CCS(=O)(=O)O (centres unmarked) [Example 17, calcium 3-(acetylamino)-3-methylpropanesulphonate] | 93 µM |
| CC(C)(C)C(=O)NCCCS(=O)(=O)O [Example 15, magnesium 3-(2,2-(dimethyl)propanoylamino)propanesulphonate] | 49.5 µM |

From patent US6265437A, “Aminoalkanesulphonic acid derivatives, their preparation and their use as medicaments” (LIPHA, priority 2000, dated 2001)
